According to article PMC9474474, “Determination of pharmacokinetics and tissue distribution of a novel lutetium-labeled PSMA-targeted ligand, ^177Lu-DOTA-PSMA-GUL, in rats by using LC–MS/MS” (Scientific Reports, 2022):

Experiment: Tissue distribution at steady state after i.v. bolus loading dose plus i.v. infusion in rats
Format: in vivo, Male Sprague–Dawley rats
Details: for plasma concentration at steady state: from 1.5 h of i.v. infusion
Experimental: Tissue distribution of ^175Lu-DOTA-PSMA-GUL was examined under two different steady-state conditions after i.v. infusion of ^175Lu-DOTA-PSMA-GUL. Two target steady-state plasma concentrations (Css) were set as 3000 and 6000 ng/mL. Rats were surgically cannulated with polyethylene tubing (0.58 mm i.d. and 0.96 mm o.d.; Natume, Tokyo, Japan) in the left jugular vein for blood sampling and femoral vein for i.v. injection and infusion. After one day of recovery, ^175Lu-DOTA-PSMA-GUL was administered by i.v. injection as a loading dose (LD) and i.v. infusion for 3 h to achieve the target Css. The i.v. bolus LD and i.v. infusion rates (K0) were calculated by LD = Css,target·Vss and K0 = Css,target·CL, respectively. […] The calculated LD was 0.60 mg/kg and 1.20 mg/kg for the target Css of 3,000 ng/mL and 6,000 ng/mL, respectively. The calculated K0 was 1.82 mg/h/kg and 3.65 mg/h/kg for the target Css of 3,000 ng/mL and 6,000 ng/mL, respectively.
Blood samples were collected at 1.5, 2, 2.5, and 3 h during i.v. infusion, and centrifuged at 3,200 × g for 10 min. At the end of the infusion, rats were sacrificed, and brain, lung, heart, spleen, small intestine, stomach, kidney, liver, prostate, fat, muscle, and testis were excised and immediately homogenized in normal saline. All samples were stored at -70 °C until analysis.
The plasma concentration–time data were analyzed by non-compartmental method using Phoenix® WinNonlin® (Pharsight, NC, USA). The fraction of ^175Lu-DOTA-PSMA-GUL excreted into urine (Furine) and feces (Ffeces) were calculated by the ratio of the total amount of drug excreted in the urine and feces to the fraction of the dose, respectively. The tissue-to-plasma partition coefficients (KP) were calculated as the tissue-to-plasma concentration ratios.

[1] = steady state, average of both infusion levels

O=C([O-])CN1CCN(CC(=O)[O-])CCN(CC(=O)[O-])C(Cc2ccc(NC(=S)NCCCC[C@H](NC(=O)N[C@@H](CCC(=O)O)C(=O)O)C(=O)O)cc2)CN(CC(=O)[O-])CC1.[Lu+3] (stereo partly drawn) [^175Lu-DOTA-PSMA-GUL, Lutetium labeled-1,4,7,10-tetraazacyclododecane-1,4,7,10-tetraacetic acid (DOTA)-PSMA-GUL]
Concentration, brain (CSS,target = 3000 ng/mL): BLOQ | Concentration, fat (CSS,target = 3000 ng/mL): 320.68 ± 55.09 ng/g | Concentration, heart (CSS,target = 3000 ng/mL): 645.67 ± 204.29 ng/g | Concentration, kidney (CSS,target = 3000 ng/mL): 7253.09 ± 665.80 ng/g | Concentration, liver (CSS,target = 3000 ng/mL): 949.81 ± 342.61 ng/g | Concentration, lung (CSS,target = 3000 ng/mL): 962.76 ± 287.82 ng/g | Concentration, muscle (CSS,target = 3000 ng/mL): 342.27 ± 188.70 ng/g | Concentration, prostate (CSS,target = 3000 ng/mL): 2433.69 ± 2292.84 ng/g | Concentration, small intestine (CSS,target = 3000 ng/mL): 741.67 ± 507.55 ng/g | Concentration, spleen (CSS,target = 3000 ng/mL): 541.13 ± 52.33 ng/g | Concentration, stomach (CSS,target = 3000 ng/mL): 276.46 ± 95.71 ng/g | Concentration, testis (CSS,target = 3000 ng/mL): 504.17 ± 122.39 ng/g | Tissue to plasma coefficient (KP), fat (CSS,target = 3000 ng/mL): 0.11 ± 0.02 | Tissue to plasma coefficient (KP), heart (CSS,target = 3000 ng/mL): 0.23 ± 0.07 | Tissue to plasma coefficient (KP), kidney (CSS,target = 3000 ng/mL): 2.56 ± 0.29 | Tissue to plasma coefficient (KP), liver (CSS,target = 3000 ng/mL): 0.33 ± 0.11 | Tissue to plasma coefficient (KP), lung (CSS,target = 3000 ng/mL): 0.34 ± 0.10 | Tissue to plasma coefficient (KP), muscle (CSS,target = 3000 ng/mL): 0.12 ± 0.07 | Tissue to plasma coefficient (KP), prostate (CSS,target = 3000 ng/mL): 0.86 ± 0.82 | Tissue to plasma coefficient (KP), small intestine (CSS,target = 3000 ng/mL): 0.26 ± 0.18 | Tissue to plasma coefficient (KP), spleen (CSS,target = 3000 ng/mL): 0.19 ± 0.02 | Tissue to plasma coefficient (KP), stomach (CSS,target = 3000 ng/mL): 0.10 ± 0.04 | Tissue to plasma coefficient (KP), testis (CSS,target = 3000 ng/mL): 0.18 ± 0.04 | Concentration, plasma (CSS,target = 3000 ng/mL, LD 0.60 mg/kg, infusion 1.82 mg/h/kg): 2845.62 ± 111.43 ng/mL | Concentration, brain (CSS,target = 6000 ng/mL): BLOQ | Concentration, fat (CSS,target = 6000 ng/mL): 406.59 ± 77.17 ng/g | Concentration, heart (CSS,target = 6000 ng/mL): 737.57 ± 453.10 ng/g | Concentration, kidney (CSS,target = 6000 ng/mL): 14,455.60 ± 1272.17 ng/g | Concentration, liver (CSS,target = 6000 ng/mL): 1881.97 ± 267.48 ng/g | Concentration, lung (CSS,target = 6000 ng/mL): 1480.52 ± 464.64 ng/g | Concentration, muscle (CSS,target = 6000 ng/mL): 621.78 ± 419.81 ng/g | Concentration, prostate (CSS,target = 6000 ng/mL): 8550.82 ± 7322.84 ng/g | Concentration, small intestine (CSS,target = 6000 ng/mL): 1636.21 ± 1273.92 ng/g | Concentration, spleen (CSS,target = 6000 ng/mL): 932.03 ± 368.50 ng/g | Concentration, stomach (CSS,target = 6000 ng/mL): 612.39 ± 161.18 ng/g | Concentration, testis (CSS,target = 6000 ng/mL): 877.83 ± 252.52 ng/g | Tissue to plasma coefficient (KP), fat (CSS,target = 6000 ng/mL): 0.07 ± 0.02 | Tissue to plasma coefficient (KP), heart (CSS,target = 6000 ng/mL): 0.13 ± 0.08 | Tissue to plasma coefficient (KP), kidney (CSS,target = 6000 ng/mL): 2.61 ± 0.47 | Tissue to plasma coefficient (KP), liver (CSS,target = 6000 ng/mL): 0.34 ± 0.05 | Tissue to plasma coefficient (KP), lung (CSS,target = 6000 ng/mL): 0.26 ± 0.09 | Tissue to plasma coefficient (KP), muscle (CSS,target = 6000 ng/mL): 0.11 ± 0.07 | Tissue to plasma coefficient (KP), prostate (CSS,target = 6000 ng/mL): 1.54 ± 1.33 | Tissue to plasma coefficient (KP), small intestine (CSS,target = 6000 ng/mL): 0.29 ± 0.23 | Tissue to plasma coefficient (KP), spleen (CSS,target = 6000 ng/mL): 0.17 ± 0.08 | Tissue to plasma coefficient (KP), stomach (CSS,target = 6000 ng/mL): 0.11 ± 0.04 | Tissue to plasma coefficient (KP), testis (CSS,target = 6000 ng/mL): 0.15 ± 0.04 | Concentration, plasma (CSS,target = 6000 ng/mL, LD 1.20 mg/kg, infusion 3.65 mg/h/kg): 5713.2 ± 523.23 ng/mL | plasma concentration at steady state (LD 0.60 mg/kg, infusion rate 1.82 mg/h/kg): approximately 3,000 ng/mL | plasma concentration at steady state (LD 1.20 mg/kg, infusion rate 3.65 mg/h/kg): ~6,000 ng/mL | detection in the brain (steady state after i.v. infusion): not detected | average KP, kidneys [1]: 2.58 | average KP, prostate [1]: 1.20 | average KP, other tissues (steady state, tissues other than kidneys and prostate): less than 0.34
